Assay results as given in patent US6632616B2, “Compounds that selectively bind to expanded polyglutamine repeat domains and methods of use thereof” (Duke University, priority 2000, dated 2003).

What was measured:
Q81-YFP = assay: Peptides added to transfected COS 7 cells expressing Q81-YFP: aggregation; assay type: cell-based
Text: (§1) Several proteins can ferry peptides or proteins into cells through the plasma membrane including HIV transactivator protein (TAT) (SEQ ID NO:37), antennapedia (SEQ ID NO:38), and herpes simplex virus type 1 protein 22 (SEQ ID NO:39) (Prochiantz, Curr Opin Cell Biol. 12:400-406 (2000)). […] The arginine-rich domains of these proteins are sufficient to transport some intact proteins even when fused to non-native proteins. The ability of polyglutamine-binding peptides fused to a TAT fragment to enter transfected COS 7 cells and inhibit polyglutamine aggregation and cell death was examined.

[1] = test system: COS 7 cells expressing Q81-YFP; assay: Peptides added to transfected COS 7 cells expressing Q81-YFP: cell death; assay type: cell-based; settings: for effect on cell death (in words): peptide added to cells
Text: as §1

thio-Q62 = assay: Thioredoxin-polyglutamine turbidity (aggregation) assay, thio-Q62; assay type: biochemical; settings: for Ability to Inhibit Aggregation: 62 glutamines, 10 days
Protocol: (§2) Turbidity assays were performed in 200 μl reactions consisting of thioredoxin-polyglutamine in PBS in 96-well, low protein binding plates. Plates were incubated at 4° C. and turbidity measured at 405 nm on a Thermo Max plate reader (Molecular Devices).
(§3) Peptides were synthesized at the Howard Hughes Medical Institute peptide sequencing facility at Duke University with an acetylated amino terminus and protection of tryptophan with BOC during synthesis. Identical results were obtained with peptides obtained from Bio-Synthesis Inc. (Lewisville, Tex.). Stock solutions of peptides were prepared fresh daily by dissolving in dimethyl sulfoxide at 2.5 mM and incubated with thioredoxin-polyglutamine protein at 0.25-25 μM.
(§4) To monitor thioredoxin-polyglutamine protein aggregation a turbidometric assay was developed, similar to the assays commonly used to study microtubule assembly and β-amyloid aggregation (Jarrett, J. T. et al. (1993) Biochem 32, 4693-4697; Sloboda, R. D. et al. (1976) Biochem 15, 4497-4505). Solutions of thio-Q62 and 81 protein increased turbidity in a polyglutamine length-, time- and concentration-dependent manner (FIG. 1B and C; Time dependence of aggregation of thioredoxin-polyglutamine with 81 glutamines not shown). […] The pelleted and retained material was confirmed as thioredoxin-polyglutamine fusion protein containing 62 or 81 glutamines on western blots probed with anti-thioredoxin or anti-polyglutamine antibody (not shown). In contrast, thioredoxin-polyglutamine protein containing 19 or 35 glutamines (thio-Q19 or 35) was not pelleted by centrifugation and was not trapped by a 0.22 μm filter.

polyglutamine = assay: In vitro polyglutamine aggregation, polyarginine transport peptide; assay type: biochemical
thio-Q19 or 35 = assay: Thioredoxin-polyglutamine turbidity assay, nonpathologic thio-Q19 or 35; assay type: biochemical
Protocol: as §2, §3, §4

[2] = test system: Q57-YFP induced cell death; assay: Q57-YFP induced cell death in co-transfected COS-7 cells (ethidium homodimer); assay type: cell-based; settings: peptides fused to CFP, co-expressed; COS-7, 48 hours; ethidium homodimer
Protocol: FIG. 5. […] Open bar=cells co-transfected with Q57-YFP and RAN-CFP. Hatched bar=cells co-transfected with Q57-YFP and SCR-CFP. Filled bar=cells co-transfected with Q57-YFP and QBP1-CFP. Dotted bar=cells co-transfected with Q57-YFP and (QBPI)2-CFP. COS-7 cells examined 48 hours after transfection using a Zeiss fluorescence microscope with rhodamine filter set. The percentage of dead cells was calculated by counting the number of transfected cells stained with ethidium homodimer and dividing by the total number of transfected cells multiplied times 100. In each experiment at least 200 transfected cells were counted. Experiments were repeated at least three times. Error bars represent standard errors. *=p<0.05; **=p<0.01 (Student's t-test).
COS-7 cells were grown and maintained in Dulbecco's modified Eagles' medium (DMEM) supplemented with 10% fetal calf serum (FCS). Cells were transfected with Effectene according to manufacturer's instructions (Qiagen GmbH, Hilden, Germany). Cells were examined 48 hours after transfection using a Zeiss fluorescence microscope equipped with YFP/CFP filter sets (Omega Optical Inc., Brattleboro, Vt.). The percentage of cells with aggregates was calculated by dividing the number of cells with aggregates by the total number of fluorescent cells, multiplied by 100. Cell viability was examined 48 hours after transfection using ehtidium homodimer (Molecular Probes, Eugene, Oreg.). Cells were incubated with 5 μM ethidium homodimer for 30 minutes (37° C.) and then examined under a fluorescence microscope equipped with a rhodamine filter set. Cells with nuclear fluorescence were counted as dead. In each experiment at least 200 transfected cells were counted. Cells expressing random peptide-CFP (RAN-CFP) and polyglutamine-YFP (Qn-YFP) were used as a control to calculate the relative difference in aggregate formation and cell death. Experiments were repeated at least four times.
The relationship between polyglutamine protein aggregation and cell death is controversial. To determine whether QBP1 or tandem-QBP1 inhibit polyglutamine-induced cell death, cell membrane permeability to ethidium homodimer was assayed. The membranes of living cells are impermeable to ethidium homodimer and permeability to ethidium homodimer is a well-established measure of cell death. Ethidium homodimer undergoes a 30-fold increase in fluorescence upon binding to nucleic acid allowing easy detection with a fluorescence microscope using a rhodamine filter. QBP1 and tandem QBP1 ((QBP1)2) fused to CFP inhibit Q57-YFP induced cell death (FIG. 5). […] Similar results have also been observed with Q45- and Q81-YFP (not shown).

[3] = 5 μm peptide and 15 μM thio-polyglutamine
[4] = versus random peptide fused to TAT
[5] = TAT-fused peptides, 10 μm peptide and 15 μM thio-polyglutamine

thio-Q62, sequence (as listed by the source): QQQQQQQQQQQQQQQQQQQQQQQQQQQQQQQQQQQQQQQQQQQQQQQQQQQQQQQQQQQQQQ
Q81-YFP, sequence (as listed by the source): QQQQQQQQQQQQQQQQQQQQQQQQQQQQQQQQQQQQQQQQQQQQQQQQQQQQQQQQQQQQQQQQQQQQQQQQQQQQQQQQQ

With WKWWPGIFD the “effect on aggregation in cells (in words)” value (Q81-YFP; peptide added to cells) was “no effect”, the “effect on cell death (in words)” value [1] was “no effect” and the “Ability to Inhibit Aggregation” value (thio-Q62; [3]) was “++++ (++++ = full inhibition)”.
In the case of “WKWWPGIFD-GGRRRRRRRR (WKWWPGIFDGGRRRRRRRR)”, the “inhibition of in vitro polyglutamine aggregation” value (polyglutamine) is reported as “inhibits”, the “effect on aggregation in cells (in words)” value (Q81-YFP; peptide added to cells) is reported as “inhibits” and the “effect on cell death (in words)” value [1] is reported as “inhibits”.
With WKWWPGIFD-TAT (WKWWPGIFDGGYGRKKRRQRRR) the “percentage of transfected cells with Q81-YFP aggregates” value (Q81-YFP; peptide added to cells) was 22.1%, the “inhibition of Q81-YFP aggregation” value (Q81-YFP; [4]) was 32% and the “inhibition of cell death” value [1, 4] was 39%. The “percentage of transfected cells that died” value ([1]; within 72 hours) was 6.0% and the “Ability to Inhibit Aggregation” value (thio-Q62; [5]) was “+++ (+++ = 75% inhibition)”.
With WKWWPWKWW the “Ability to Inhibit Aggregation” value (thio-Q62; [3]) was “+++ (+++ = 75% inhibition)”.
With WKWWPWKWW-TAT (WKWWPWKWWGGYGRKKRRQRRR) the “Ability to Inhibit Aggregation” value (thio-Q62; [5]) was “++++ (++++ = full inhibition)”.
With WKWWVWKWW the “Ability to Inhibit Aggregation” value (thio-Q62; [3]) was “++ (++ = 50% inhibition)”.
With WKWWVWKWWP the “Ability to Inhibit Aggregation” value (thio-Q62; [3]) was “++++ (++++ = full inhibition)”.
For “WKWWVWKWWP-TAT (WKWWVWKWWPGGYGRKKRRQRRR)”, the “Ability to Inhibit Aggregation” value (thio-Q62; [5]) was “++++ (++++ = full inhibition)”.
With WLWWPGIFD the “Ability to Inhibit Aggregation” value (thio-Q62; [3]) was “++ (++ = 50% inhibition)”.
WPIWSKGNDWF [SCR, reference compound] was tested, and the “effect on turbidity of nonpathologic thio-Q19 or 35” value (thio-Q19 or 35) was “no effect”, the “inhibition of Q57-YFP induced cell death” value [2] was “does not inhibit cell death” and the “inhibition of thio-Q62 aggregation (in words)” value (thio-Q62; turbidity at 405 nm, FIG. 2) was “did not inhibit aggregation”.
For WVWWPGIFD, the “Ability to Inhibit Aggregation” value (thio-Q62; [3]) was “+++ (+++ = 75% inhibition)”.
WWWWPGIFD was tested, and the “Ability to Inhibit Aggregation” value (thio-Q62; [3]) was “++ (++ = 50% inhibition)”.
